From ChEMBL document CHEMBL1158839, “Dichotomins J and K, vasodilator cyclic peptides from Stellaria dichotoma” (J Nat Prod, 2005)
Calls of active or inactive are those of the source. The calls are words filed in the database; no cut-off is given here.

Experiments:
Aorta [1] = test: Vasorelaxant activity against norepinephrine-induced contraction in Wistar rat thoracic aorta at 100 uM; assay type: functional, tissue-based
Aorta [2] = test: Vasorelaxant activity against norepinephrine-induced contraction in Wistar rat thoracic aorta at 30 uM; assay type: functional, tissue-based

SMILES	Activity (Aorta [1])	Activity (Aorta [2])
CC[C@@H](C)[C@@H]1NC(=O)[C@H](C(C)C)NC(=O)[C@H](Cc2ccc(O)cc2)NC(=O)[C@H](Cc2ccc(O)cc2)NC(=O)[C@@H]2CCCN2C(=O)[C@H]([C@H](C)CC)NC(=O)[C@H](C(C)C)NC(=O)[C@H](C)NC(=O)[C@@H]2CCCN2C1=O	Active	
CC[C@@H](C)[C@@H]1NC(=O)CNC(=O)[C@H](C)NC(=O)[C@H](Cc2ccc(O)cc2)NC(=O)[C@H](CC(C)C)NC(=O)[C@H](Cc2ccccc2)NC1=O		Active
